Measurements taken from publication PMC4581874 (PLoS ONE, 2015).

Legend:
[1] = target: T1, CaMKIIβ (h) (Homo sapiens, UniProt Q13554); experiment: Kinase profile, CaMKIIβ; assay type: biochemical; details: mean ± S.D.
T1 construct: purchased Millipore (now Eurofins) KinaseProfiler / IC50 Profiler
Method: (§1) All kinase assays were carried out using KinaseProfiler^TM and IC50 Profiler^TM (Millipore UK Ltd., Dundee, UK. Now Eurofins Scientific, Dundee, UK). All IC50 data were presented as the mean values. The Curves obtained to determine IC50 values were shown in Supporting Information (S1 Fig).

[2] = target: T2, PKBβ (h) (Homo sapiens, UniProt P31751); experiment: Kinase profile, PKBβ; assay type: biochemical; details: mean ± S.D.
T2 construct: purchased Millipore (now Eurofins) KinaseProfiler / IC50 Profiler
Method: as §1

[3] = target: T3, PKG1α (h) (Homo sapiens, UniProt Q13976); experiment: Kinase profile, PKG1α; assay type: biochemical; details: mean ± S.D.
T3 construct: purchased Millipore (now Eurofins) KinaseProfiler / IC50 Profiler
T3 sequence (Q13976 whole entry): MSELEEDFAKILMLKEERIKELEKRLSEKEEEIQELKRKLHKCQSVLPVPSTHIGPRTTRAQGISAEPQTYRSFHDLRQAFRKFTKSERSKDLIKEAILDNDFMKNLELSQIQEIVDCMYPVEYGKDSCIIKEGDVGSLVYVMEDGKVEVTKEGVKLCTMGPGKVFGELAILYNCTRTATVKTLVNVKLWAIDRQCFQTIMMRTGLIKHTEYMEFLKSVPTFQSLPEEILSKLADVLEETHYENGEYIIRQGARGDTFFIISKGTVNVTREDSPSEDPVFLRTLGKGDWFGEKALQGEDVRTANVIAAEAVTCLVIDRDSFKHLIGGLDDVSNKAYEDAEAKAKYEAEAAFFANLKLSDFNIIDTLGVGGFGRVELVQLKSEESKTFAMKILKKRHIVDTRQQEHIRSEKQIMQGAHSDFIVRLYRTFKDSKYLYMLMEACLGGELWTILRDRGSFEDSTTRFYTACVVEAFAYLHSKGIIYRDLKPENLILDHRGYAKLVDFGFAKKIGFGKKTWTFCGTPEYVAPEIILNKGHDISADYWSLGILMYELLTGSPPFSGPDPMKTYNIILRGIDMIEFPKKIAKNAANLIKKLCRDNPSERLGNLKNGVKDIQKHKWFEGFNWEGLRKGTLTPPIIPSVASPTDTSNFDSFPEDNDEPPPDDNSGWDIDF
Method: as §1

[4] = target: T4, MAPK1 (h) (Homo sapiens, UniProt P27361); experiment: Kinase profile, MAPK1; assay type: biochemical; details: mean ± S.D.
T4 construct: purchased Millipore (now Eurofins) KinaseProfiler / IC50 Profiler
Method: as §1

[5] = target: T5, AMPKα1 (h) (Homo sapiens, UniProt Q13131); experiment: Kinase profile, AMPKα1; assay type: biochemical; details: mean ± S.D.
T5 construct: purchased Millipore (now Eurofins) KinaseProfiler / IC50 Profiler
Method: as §1

[6] = target: T6, CDK9/cyclin T1 (h) (Homo sapiens, UniProt P50750); experiment: Kinase profile, CDK9/cyclin T1; assay type: biochemical; details: mean ± S.D.
T6 construct: purchased Millipore (now Eurofins) KinaseProfiler / IC50 Profiler
Method: as §1

[7] = target: T7, VEGFR-3 (Homo sapiens, UniProt P35916); experiment: In vitro kinase assay, VEGFR-3; assay type: biochemical
T7 construct: purchased Millipore UK Ltd., Dundee, UK (now Eurofins Scientific); KinaseProfiler / IC50 Profiler service
Method: as §1

[8] = target: T8, Lyn (h) (Homo sapiens, UniProt P07948); experiment: Kinase profile, Lyn; assay type: biochemical; details: mean ± S.D.
T8 construct: purchased Millipore (now Eurofins) KinaseProfiler / IC50 Profiler
Method: as §1

[9] = target: T9, SAPK2a (h) (Homo sapiens, UniProt Q16539); experiment: Kinase profile, SAPK2a; assay type: biochemical; details: mean ± S.D.
T9 construct: purchased Millipore (now Eurofins) KinaseProfiler / IC50 Profiler
Method: as §1

[10] = target: T10, PDGFRα (Homo sapiens, UniProt P16234); experiment: In vitro kinase assay, PDGFRα; assay type: biochemical
T10 construct: purchased Millipore UK Ltd., Dundee, UK (now Eurofins Scientific); KinaseProfiler / IC50 Profiler service
T10 sequence (P16234 24-1089): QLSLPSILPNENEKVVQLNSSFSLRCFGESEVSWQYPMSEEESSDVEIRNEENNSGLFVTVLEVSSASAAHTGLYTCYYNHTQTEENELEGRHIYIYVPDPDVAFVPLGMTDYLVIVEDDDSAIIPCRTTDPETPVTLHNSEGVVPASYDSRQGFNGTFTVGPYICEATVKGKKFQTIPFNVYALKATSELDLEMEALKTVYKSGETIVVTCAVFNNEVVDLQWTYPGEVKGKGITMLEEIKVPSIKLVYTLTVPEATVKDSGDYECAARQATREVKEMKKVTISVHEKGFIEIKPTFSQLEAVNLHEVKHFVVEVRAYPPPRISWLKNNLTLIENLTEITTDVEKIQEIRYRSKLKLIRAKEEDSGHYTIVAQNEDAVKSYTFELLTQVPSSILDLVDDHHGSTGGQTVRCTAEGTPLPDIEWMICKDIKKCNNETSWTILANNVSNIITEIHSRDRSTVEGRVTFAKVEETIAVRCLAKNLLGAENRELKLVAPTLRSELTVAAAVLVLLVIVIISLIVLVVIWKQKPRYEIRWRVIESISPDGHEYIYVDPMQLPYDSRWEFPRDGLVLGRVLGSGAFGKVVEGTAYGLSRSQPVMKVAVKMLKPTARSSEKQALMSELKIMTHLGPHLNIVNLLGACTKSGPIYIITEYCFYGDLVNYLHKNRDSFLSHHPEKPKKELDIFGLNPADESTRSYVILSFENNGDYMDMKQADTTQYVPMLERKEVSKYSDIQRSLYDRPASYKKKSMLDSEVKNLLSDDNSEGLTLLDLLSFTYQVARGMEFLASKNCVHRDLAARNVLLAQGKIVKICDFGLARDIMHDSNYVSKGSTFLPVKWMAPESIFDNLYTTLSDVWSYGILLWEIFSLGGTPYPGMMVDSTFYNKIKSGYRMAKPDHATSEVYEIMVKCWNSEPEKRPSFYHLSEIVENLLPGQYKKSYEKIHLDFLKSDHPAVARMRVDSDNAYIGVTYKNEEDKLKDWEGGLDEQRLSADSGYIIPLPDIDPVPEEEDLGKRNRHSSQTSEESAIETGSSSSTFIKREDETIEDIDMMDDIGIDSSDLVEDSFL
Method: as §1

[11] = target: T11, cKit (Homo sapiens, UniProt P10721); experiment: In vitro kinase assay, cKit; assay type: biochemical
T11 construct: purchased Millipore UK Ltd., Dundee, UK (now Eurofins Scientific); KinaseProfiler / IC50 Profiler service
T11 sequence (P10721 26-976): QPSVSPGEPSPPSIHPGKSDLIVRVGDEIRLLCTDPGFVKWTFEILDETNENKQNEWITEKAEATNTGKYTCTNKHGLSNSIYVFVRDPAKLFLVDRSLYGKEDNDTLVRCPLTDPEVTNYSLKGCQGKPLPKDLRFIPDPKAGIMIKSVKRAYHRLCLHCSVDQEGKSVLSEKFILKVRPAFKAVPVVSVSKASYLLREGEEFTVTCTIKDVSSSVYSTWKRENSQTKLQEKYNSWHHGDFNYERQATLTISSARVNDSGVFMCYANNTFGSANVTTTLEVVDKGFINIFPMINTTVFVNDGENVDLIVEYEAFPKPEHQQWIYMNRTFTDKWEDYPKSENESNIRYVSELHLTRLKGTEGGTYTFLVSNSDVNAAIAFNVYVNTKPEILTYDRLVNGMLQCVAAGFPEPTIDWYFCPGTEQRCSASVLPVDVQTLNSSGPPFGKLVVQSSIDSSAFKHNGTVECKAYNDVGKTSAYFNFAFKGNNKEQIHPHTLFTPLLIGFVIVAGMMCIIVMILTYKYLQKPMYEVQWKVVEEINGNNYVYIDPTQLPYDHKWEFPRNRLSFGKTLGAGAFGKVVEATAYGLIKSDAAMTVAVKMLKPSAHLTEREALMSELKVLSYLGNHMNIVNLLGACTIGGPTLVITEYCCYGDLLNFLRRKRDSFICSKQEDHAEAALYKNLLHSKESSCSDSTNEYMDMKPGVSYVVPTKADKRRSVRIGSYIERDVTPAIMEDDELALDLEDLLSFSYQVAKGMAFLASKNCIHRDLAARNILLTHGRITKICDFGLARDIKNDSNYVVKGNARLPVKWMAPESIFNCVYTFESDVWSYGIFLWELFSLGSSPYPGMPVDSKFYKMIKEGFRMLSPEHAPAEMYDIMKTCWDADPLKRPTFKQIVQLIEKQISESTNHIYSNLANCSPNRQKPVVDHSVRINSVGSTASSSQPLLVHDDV
Method: as §1

[12] = tested on: HUVECs; experiment: VEGF-induced scratch wound migration assay; assay type: cell-based, human; details: VEGF 50 ng/mL, compound 0.5 μg/mL, 8 hours
Method: For the cell proliferation assays, cells were incubated overnight in endothelial basal media (EBM; Lonza, Walkersville, MD, USA) containing 0.5% FBS or supplemented with VEGF-A and/or VEGF inhibitors. The cells were washed with PBS and counted in 4 random microscope fields. The tube formation assay was performed by seeding cells on Matrigel-coated plates (BD Bioscience, Bedford, MA, USA) and incubating in EBM containing 0.5% FBS or supplemented with VEGF-A and/or VEGF inhibitors. After overnight incubation, tubule networks were quantified by measuring the tubule length in 4 random microscope fields. For the analysis of scratch wound migration, confluent cell monolayers grown on 6-well plates were scratched using a micropipette tip. After the plates were washed with PBS to remove dislodged cells and media, they were incubated with EBM containing 0.5% FBS or supplemented with VEGF and/or VEGF inhibitors for 8 hours. Cell migration was observed by optical microscopy and quantified by measuring the number of cells that had migrated from the wound edges.

[13] = target: T12, PKCδ (h) (Homo sapiens, UniProt Q05655); experiment: Kinase profile, PKCδ; assay type: biochemical; details: mean ± S.D.
T12 construct: purchased Millipore (now Eurofins) KinaseProfiler / IC50 Profiler
Method: as §1

[14] = target: T13, CDK2/cyclin E (h) (Homo sapiens, UniProt P24941); experiment: Kinase profile, CDK2/cyclin E; assay type: biochemical; details: mean ± S.D.
T13 construct: purchased Millipore (now Eurofins) KinaseProfiler / IC50 Profiler
Method: as §1

[15] = target: T14, PhKγ2 (h) (Homo sapiens, UniProt P15735); experiment: Kinase profile, PhKγ2; assay type: biochemical; details: mean ± S.D.
T14 construct: purchased Millipore (now Eurofins) KinaseProfiler / IC50 Profiler
Method: as §1

[16] = tested on: HCC827 cells; experiment: HCC827 cell viability assay; assay type: cell-based; details: Homo sapiens, 72 h, read-out: HCC827 IC50 (anti-proliferative activity)
Method: HCC827 cells were purchased from the American Type Culture Collection (ATCC, Manassas, VA, USA). […] Human umbilical vein endothelial cells (HUVECs, ScienCell Research Laboratories, Carlsbad, CA, USA) were cultured in endothelial growth medium-2 (EGM-2; Lonza, Walkersville, MD, USA) from passages 3 to 6.
After a 24-hour incubation, the cells were treated with a series of test compound dilutions for 72 hours. Cell viability was assessed using EZ-Cytox (Daeil Lab Service, Seoul, South Korea) according to the manufacturer’s instructions.
Cells were incubated for 72 h with a range of concentrations of MKP101, and cell viability was measured using the WST-1 assay. […] Western blot analysis using antibodies to phosphorylated and total EGFR from a representative experiment is shown. Cells were incubated for 3 h at the indicated concentration. (C) Graph showing the relative intensities of the total and phosphorylated EGFR as determined by band densitometry. IC50, half-maximal inhibitory concentration.

[17] = target: T15, FLT3 (h) (Homo sapiens, UniProt P36888); experiment: Kinase profile, FLT3; assay type: biochemical; details: mean ± S.D.
T15 construct: purchased Millipore (now Eurofins) KinaseProfiler / IC50 Profiler
Method: as §1

[18] = target: T16, CaMKIIγ (h) (Homo sapiens, UniProt Q13555); experiment: Kinase profile, CaMKIIγ; assay type: biochemical; details: mean ± S.D.
T16 construct: purchased Millipore (now Eurofins) KinaseProfiler / IC50 Profiler
Method: as §1

[19] = target: EGFR (Homo sapiens, UniProt P00533); experiment: In vitro kinase assay, EGFR; assay type: biochemical
Chain of EGFR (P00533 25-1210): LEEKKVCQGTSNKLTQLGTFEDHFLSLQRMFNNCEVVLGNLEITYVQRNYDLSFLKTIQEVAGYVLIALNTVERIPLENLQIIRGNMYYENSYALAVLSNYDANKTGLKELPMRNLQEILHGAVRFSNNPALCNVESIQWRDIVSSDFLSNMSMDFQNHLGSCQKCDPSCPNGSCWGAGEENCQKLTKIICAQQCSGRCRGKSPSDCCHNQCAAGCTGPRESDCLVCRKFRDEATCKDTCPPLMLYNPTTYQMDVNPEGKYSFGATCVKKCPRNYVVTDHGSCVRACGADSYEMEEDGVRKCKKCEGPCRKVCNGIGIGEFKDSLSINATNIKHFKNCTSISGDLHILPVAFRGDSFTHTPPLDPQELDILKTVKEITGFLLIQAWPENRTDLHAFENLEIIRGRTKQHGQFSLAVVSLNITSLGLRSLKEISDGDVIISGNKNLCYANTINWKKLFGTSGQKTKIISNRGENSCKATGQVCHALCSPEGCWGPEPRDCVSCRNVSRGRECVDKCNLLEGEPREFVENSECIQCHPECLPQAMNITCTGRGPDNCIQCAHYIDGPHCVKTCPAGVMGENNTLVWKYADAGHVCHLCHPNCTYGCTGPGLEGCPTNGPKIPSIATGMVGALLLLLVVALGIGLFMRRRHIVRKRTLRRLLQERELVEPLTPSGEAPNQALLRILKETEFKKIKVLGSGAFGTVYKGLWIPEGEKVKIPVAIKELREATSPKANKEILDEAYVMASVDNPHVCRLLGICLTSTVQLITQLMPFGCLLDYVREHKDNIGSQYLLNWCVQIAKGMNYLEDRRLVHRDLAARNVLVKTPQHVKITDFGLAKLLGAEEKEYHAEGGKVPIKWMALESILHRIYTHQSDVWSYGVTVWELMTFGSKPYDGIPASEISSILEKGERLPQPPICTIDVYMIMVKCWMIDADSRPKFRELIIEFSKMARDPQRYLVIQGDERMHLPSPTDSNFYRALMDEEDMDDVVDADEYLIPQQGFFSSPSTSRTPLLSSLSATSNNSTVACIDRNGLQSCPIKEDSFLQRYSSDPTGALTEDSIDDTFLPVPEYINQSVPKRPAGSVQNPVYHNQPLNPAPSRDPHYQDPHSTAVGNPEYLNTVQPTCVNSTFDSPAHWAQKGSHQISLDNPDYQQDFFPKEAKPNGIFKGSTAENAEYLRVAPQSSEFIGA
Method: All kinase assays were carried out using KinaseProfiler^TM and IC50 Profiler^TM (Millipore UK Ltd., Dundee, UK. Now Eurofins Scientific, Dundee, UK). All IC50 data were presented as the mean values.

[20] = target: T17, PKCμ (h) (Homo sapiens, UniProt Q15139); experiment: Kinase profile, PKCμ; assay type: biochemical; details: mean ± S.D.
T17 construct: purchased Millipore (now Eurofins) KinaseProfiler / IC50 Profiler
Method: as §1

[21] = target: T18, CDK3/cyclin E (h) (Homo sapiens, UniProt Q00526); experiment: Kinase profile, CDK3/cyclin E; assay type: biochemical; details: mean ± S.D.
T18 construct: purchased Millipore (now Eurofins) KinaseProfiler / IC50 Profiler
Method: as §1

[22] = target: T19, GSK3β (h) (Homo sapiens, UniProt P49841); experiment: Kinase profile, GSK3β; assay type: biochemical; details: mean ± S.D.
T19 construct: purchased Millipore (now Eurofins) KinaseProfiler / IC50 Profiler
Method: as §1

[23] = target: T20, EGFR (L858R) (Homo sapiens, UniProt P00533, L858R); experiment: In vitro kinase assay, EGFR (L858R); assay type: biochemical
T20 construct: purchased Millipore UK Ltd., Dundee, UK (now Eurofins Scientific); KinaseProfiler / IC50 Profiler service
T20 sequence (P00533 25-1210 L858R): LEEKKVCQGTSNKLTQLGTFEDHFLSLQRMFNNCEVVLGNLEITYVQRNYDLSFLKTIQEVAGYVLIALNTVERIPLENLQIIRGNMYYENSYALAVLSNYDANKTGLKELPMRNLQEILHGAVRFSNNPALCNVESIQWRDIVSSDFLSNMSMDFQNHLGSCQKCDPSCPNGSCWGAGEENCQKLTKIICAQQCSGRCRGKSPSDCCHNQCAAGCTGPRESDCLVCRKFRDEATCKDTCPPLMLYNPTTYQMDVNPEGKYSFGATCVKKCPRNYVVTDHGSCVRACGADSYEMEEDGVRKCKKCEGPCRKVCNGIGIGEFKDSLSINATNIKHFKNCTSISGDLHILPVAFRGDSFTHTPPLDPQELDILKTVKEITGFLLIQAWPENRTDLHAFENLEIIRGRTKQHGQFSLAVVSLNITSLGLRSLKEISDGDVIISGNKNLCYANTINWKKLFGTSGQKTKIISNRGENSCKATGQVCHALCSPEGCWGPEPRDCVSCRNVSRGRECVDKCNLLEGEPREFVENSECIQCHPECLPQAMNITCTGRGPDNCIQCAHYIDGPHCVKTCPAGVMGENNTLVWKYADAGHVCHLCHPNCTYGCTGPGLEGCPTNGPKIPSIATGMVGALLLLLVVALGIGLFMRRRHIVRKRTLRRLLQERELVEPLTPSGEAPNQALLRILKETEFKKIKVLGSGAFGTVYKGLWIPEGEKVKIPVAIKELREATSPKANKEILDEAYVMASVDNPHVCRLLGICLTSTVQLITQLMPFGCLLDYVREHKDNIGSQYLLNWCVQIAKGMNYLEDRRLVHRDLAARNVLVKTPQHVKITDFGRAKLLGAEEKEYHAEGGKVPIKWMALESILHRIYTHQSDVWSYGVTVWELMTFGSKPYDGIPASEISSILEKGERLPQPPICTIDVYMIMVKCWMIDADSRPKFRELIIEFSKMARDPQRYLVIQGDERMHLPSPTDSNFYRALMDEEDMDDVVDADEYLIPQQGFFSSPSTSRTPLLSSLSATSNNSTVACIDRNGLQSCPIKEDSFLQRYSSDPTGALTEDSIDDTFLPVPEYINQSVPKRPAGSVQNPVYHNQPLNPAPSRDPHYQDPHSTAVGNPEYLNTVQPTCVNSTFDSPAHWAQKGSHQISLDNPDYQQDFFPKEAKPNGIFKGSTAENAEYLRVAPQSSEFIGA
Method: as §1

[24] = in vitro kinase assay, mean values

inhibition at 1 µM [1]: 17 ± 4% | inhibition at 1 µM [2]: 14 ± 4% | inhibition at 1 µM [3]: 0% | inhibition at 1 µM [4]: 4 ± 5% | inhibition at 1 µM [5]: 0% | inhibition at 1 µM [6]: 54 ± 4% | inhibition at 1 µM ([7]; 1 μM, mean ± S.D., read-out: % inhibition at 1 μM, VEGFR-3 (h)): 98% | IC50 ([7]; in vitro kinase assay): 2 nM | inhibition at 1 µM [8]: 98 ± 1% | inhibition at 1 µM [9]: 82 ± 2% | inhibition at 1 µM ([10]; 1 μM, mean ± S.D., read-out: % inhibition at 1 μM, PDGFRα (h)): 93% | IC50 ([10]; in vitro kinase assay): 162 nM | inhibition at 1 µM ([11]; 1 μM, mean ± S.D., read-out: % inhibition at 1 μM, cKit(h)): 99% | IC50 ([11]; in vitro kinase assay): 108 nM | inhibition at 1 µM [13]: 0% | inhibition at 1 µM [14]: 8 ± 1% | inhibition at 1 µM [15]: 0% | IC50 [16]: 160 nM | inhibition at 1 µM [17]: 91 ± 1% | inhibition at 1 µM [18]: 37 ± 2% | inhibition at 1 µM ([19]; 1 μM, mean ± S.D., read-out: % inhibition at 1 μM, EGFR(h)): 96 ± 2% | IC50 [19, 24]: 43 nM | inhibition at 1 µM [20]: 7 ± 1% | inhibition at 1 µM [21]: 6 ± 2% | inhibition at 1 µM [22]: 18 ± 4% | inhibition at 1 µM ([23]; 1 μM, mean ± S.D., read-out: % inhibition at 1 μM, EGFR(L858R)(h)): 96 ± 1% | IC50 [23, 24]: 17 nM
Compound: Cc1ccc(Nc2nccc(N(C)c3ccc4[nH]ccc4c3)n2)cc1S(N)(=O)=O [MKP101]
Effect on VEGF-induced increase in migration [12]: significantly inhibited
